Test results from ChEMBL document CHEMBL5465560, “Selectivity Literature for EUbOPEN Chemogenomic Library” (2024).

Experiments:
[1] = target: Phosphatidylinositol 4,5-bisphosphate 3-kinase catalytic subunit gamma isoform (Homo sapiens) (UniProt P48736); experiment: Selectivity interaction (KinomeScan (DiscoverX)) EUB0000229b PIK3CG; conditions: at 10 µM
[2] = target: Cyclin-dependent kinase 14 (Homo sapiens) (UniProt O94921); experiment: Selectivity interaction (KinomeScan (DiscoverX)) EUB0000595a CDK14; conditions: at 10 µM
[3] = target: T1, Bromodomain and PHD finger-containing protein 3 (Homo sapiens) (UniProt Q9ULD4); experiment: Selectivity interaction (Bromodomain panel (DSF asssay)) EUB0000270b BRPF3
T1 sequence (whole entry): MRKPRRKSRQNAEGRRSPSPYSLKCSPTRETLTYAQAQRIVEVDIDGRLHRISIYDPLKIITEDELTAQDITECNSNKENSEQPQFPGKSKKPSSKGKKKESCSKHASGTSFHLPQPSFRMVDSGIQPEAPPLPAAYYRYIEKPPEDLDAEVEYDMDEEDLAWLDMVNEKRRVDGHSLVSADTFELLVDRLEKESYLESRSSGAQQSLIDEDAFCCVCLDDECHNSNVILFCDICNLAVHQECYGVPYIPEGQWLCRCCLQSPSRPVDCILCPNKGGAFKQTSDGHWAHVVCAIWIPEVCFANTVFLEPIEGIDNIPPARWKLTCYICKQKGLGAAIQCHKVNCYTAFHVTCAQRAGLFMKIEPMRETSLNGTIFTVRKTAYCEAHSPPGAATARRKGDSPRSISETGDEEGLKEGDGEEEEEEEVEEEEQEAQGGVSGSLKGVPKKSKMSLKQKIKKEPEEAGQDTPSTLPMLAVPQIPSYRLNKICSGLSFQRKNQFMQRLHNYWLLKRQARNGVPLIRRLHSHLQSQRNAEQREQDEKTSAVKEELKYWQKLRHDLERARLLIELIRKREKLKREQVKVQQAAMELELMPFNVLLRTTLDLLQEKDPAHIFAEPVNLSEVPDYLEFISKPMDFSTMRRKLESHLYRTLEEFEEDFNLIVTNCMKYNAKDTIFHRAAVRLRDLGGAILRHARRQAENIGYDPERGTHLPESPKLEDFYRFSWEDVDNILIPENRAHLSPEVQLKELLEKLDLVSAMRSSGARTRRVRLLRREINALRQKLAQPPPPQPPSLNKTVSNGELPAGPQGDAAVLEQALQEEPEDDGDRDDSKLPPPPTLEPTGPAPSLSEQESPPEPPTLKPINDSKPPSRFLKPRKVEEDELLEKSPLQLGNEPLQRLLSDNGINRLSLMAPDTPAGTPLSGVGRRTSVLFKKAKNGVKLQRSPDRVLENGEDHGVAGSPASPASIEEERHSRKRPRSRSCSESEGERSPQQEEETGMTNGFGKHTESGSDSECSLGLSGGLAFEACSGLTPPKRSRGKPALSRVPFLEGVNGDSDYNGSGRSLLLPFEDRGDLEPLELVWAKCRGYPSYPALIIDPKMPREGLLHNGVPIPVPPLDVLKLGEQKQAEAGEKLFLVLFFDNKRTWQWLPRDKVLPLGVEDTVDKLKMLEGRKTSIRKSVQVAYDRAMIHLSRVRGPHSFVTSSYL

[4] = target: Epithelial discoidin domain-containing receptor 1 (Homo sapiens) (UniProt Q08345); experiment: Selectivity interaction (KinomeScan (DiscoverX)) EUB0000607a DDR1; conditions: at 10 µM
[5] = target: Phosphatidylinositol 4-phosphate 3-kinase C2 domain-containing subunit beta (Homo sapiens) (UniProt O00750); experiment: Selectivity interaction (KinomeScan (DiscoverX)) EUB0000607a PIK3C2B; conditions: at 10 µM
[6] = target: Tyrosine-protein kinase ABL1 (Homo sapiens, UniProt P00519); experiment: (§1) Selectivity interaction (KinomeScan (DiscoverX)) EUB0000618a ABL1; conditions: at 10 µM
[7] = test system: Tyrosine-protein kinase ABL1 (Homo sapiens), P00519 [M351T]; experiment: as §1; conditions: at 10 µM
[8] = test system: Tyrosine-protein kinase ABL1 (Homo sapiens), P00519 [H396P]; experiment: as §1; conditions: at 10 µM
[9] = test system: Tyrosine-protein kinase ABL1 (Homo sapiens), P00519 [Q252H]; experiment: as §1; conditions: at 10 µM
[10] = test system: Tyrosine-protein kinase ABL1 (Homo sapiens), P00519 [E255K]; experiment: as §1; conditions: at 10 µM
[11] = test system: Tyrosine-protein kinase ABL1 (Homo sapiens), P00519 [Y253F]; experiment: as §1; conditions: at 10 µM
[12] = test system: Tyrosine-protein kinase ABL1 (Homo sapiens), P00519 [F317L]; experiment: as §1; conditions: at 10 µM
[13] = test system: Tyrosine-protein kinase ABL1 (Homo sapiens), P00519 [T315I]; experiment: as §1; conditions: at 10 µM
[14] = test system: Tyrosine-protein kinase ABL1 (Homo sapiens), P00519 [F317I]; experiment: as §1; conditions: at 10 µM
Focal adhesion kinase 1 = Focal adhesion kinase 1 (Homo sapiens, UniProt Q05397); experiment: Selectivity interaction (ActivX KiNativ screen (kinase selectivity in THP-1 cell lysates)) EUB0000639a PTK2; type: subcellular; conditions: lysate, at 1 µM
[15] = target: STE20-like serine/threonine-protein kinase (Homo sapiens, UniProt Q9H2G2); experiment: Selectivity interaction (Kinase panel (Invitrogen)) EUB0000639a SLK; conditions: at 200 nM
[16] = target: Serine/threonine-protein kinase B-raf (Homo sapiens) (UniProt P15056); conditions: at 10 µM

STE20-like serine/threonine-protein kinase, sequence (Q9H2G2 whole entry, looked up): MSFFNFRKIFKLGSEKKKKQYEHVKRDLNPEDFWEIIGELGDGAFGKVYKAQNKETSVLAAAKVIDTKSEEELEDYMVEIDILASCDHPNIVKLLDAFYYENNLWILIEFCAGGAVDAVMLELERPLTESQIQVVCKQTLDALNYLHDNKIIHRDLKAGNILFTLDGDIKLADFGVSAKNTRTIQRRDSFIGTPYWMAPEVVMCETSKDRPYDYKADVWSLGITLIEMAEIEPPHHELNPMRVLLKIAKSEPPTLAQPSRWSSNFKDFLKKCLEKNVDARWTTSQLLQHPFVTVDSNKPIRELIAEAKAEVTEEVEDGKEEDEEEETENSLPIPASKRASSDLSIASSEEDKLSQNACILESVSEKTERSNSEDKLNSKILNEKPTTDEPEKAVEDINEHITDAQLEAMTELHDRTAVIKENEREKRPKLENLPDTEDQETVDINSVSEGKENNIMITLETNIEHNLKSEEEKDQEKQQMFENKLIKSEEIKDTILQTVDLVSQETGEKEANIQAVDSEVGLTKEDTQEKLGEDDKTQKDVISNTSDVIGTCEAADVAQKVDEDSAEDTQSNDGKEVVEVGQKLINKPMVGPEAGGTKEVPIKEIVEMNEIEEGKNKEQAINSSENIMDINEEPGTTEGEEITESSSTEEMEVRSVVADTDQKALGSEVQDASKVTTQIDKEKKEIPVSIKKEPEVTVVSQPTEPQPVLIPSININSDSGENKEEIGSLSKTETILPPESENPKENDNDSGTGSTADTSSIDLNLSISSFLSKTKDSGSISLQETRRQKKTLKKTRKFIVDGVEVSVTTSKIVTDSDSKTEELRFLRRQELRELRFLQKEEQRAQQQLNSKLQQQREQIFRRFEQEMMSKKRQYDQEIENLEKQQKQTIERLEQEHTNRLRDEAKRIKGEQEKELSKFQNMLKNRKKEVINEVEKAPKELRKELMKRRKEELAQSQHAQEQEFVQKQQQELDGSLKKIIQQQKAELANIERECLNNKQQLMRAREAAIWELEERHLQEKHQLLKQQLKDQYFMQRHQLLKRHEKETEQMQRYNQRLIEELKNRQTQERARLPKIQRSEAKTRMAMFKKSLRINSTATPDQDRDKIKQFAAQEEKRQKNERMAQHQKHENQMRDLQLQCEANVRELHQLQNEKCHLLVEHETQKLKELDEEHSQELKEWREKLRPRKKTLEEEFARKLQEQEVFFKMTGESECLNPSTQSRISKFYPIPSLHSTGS
Phosphatidylinositol 4-phosphate 3-kinase C2 domain-containing subunit beta (Homo sapiens), sequence (O00750 whole entry, the tested form may be a part): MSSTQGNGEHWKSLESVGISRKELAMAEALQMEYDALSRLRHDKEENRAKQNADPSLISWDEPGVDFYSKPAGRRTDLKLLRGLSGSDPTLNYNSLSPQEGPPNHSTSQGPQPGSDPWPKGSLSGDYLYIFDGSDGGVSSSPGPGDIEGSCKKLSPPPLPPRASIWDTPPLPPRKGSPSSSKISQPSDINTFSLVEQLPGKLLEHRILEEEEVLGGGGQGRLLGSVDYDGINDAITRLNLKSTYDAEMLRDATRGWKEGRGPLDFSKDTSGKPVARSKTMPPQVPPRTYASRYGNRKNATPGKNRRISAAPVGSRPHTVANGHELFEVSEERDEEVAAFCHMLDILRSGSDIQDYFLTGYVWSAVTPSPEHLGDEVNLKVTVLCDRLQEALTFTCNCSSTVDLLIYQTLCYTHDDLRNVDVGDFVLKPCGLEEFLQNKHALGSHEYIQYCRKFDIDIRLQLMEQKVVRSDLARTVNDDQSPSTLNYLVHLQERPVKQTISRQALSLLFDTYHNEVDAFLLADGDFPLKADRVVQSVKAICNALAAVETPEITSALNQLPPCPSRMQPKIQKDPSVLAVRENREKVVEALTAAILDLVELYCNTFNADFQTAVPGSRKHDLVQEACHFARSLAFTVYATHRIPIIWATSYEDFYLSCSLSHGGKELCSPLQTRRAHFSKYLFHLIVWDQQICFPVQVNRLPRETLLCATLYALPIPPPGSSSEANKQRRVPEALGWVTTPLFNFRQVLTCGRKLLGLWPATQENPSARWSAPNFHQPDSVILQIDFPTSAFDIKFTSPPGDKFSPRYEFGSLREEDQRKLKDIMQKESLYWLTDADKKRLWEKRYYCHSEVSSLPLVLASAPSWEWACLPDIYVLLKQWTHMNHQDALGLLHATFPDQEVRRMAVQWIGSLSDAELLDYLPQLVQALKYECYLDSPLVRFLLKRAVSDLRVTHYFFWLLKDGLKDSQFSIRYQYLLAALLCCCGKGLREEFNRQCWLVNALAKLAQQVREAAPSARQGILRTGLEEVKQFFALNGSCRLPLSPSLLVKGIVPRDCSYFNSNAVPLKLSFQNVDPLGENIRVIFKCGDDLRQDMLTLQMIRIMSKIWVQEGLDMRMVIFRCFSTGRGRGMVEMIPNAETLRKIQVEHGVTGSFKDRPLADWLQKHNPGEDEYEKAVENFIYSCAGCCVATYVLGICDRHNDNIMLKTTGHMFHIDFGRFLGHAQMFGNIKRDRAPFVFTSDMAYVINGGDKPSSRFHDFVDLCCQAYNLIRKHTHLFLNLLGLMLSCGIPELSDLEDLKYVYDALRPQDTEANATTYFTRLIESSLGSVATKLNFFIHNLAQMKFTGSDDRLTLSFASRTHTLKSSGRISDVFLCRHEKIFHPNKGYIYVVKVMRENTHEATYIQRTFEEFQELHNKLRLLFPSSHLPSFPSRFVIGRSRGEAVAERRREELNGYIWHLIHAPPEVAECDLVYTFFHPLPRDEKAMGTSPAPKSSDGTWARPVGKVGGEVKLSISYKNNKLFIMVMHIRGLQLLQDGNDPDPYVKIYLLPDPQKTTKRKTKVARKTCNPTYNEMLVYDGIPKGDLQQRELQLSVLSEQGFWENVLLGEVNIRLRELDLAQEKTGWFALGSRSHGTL
Cyclin-dependent kinase 14 (Homo sapiens), sequence (O94921 whole entry): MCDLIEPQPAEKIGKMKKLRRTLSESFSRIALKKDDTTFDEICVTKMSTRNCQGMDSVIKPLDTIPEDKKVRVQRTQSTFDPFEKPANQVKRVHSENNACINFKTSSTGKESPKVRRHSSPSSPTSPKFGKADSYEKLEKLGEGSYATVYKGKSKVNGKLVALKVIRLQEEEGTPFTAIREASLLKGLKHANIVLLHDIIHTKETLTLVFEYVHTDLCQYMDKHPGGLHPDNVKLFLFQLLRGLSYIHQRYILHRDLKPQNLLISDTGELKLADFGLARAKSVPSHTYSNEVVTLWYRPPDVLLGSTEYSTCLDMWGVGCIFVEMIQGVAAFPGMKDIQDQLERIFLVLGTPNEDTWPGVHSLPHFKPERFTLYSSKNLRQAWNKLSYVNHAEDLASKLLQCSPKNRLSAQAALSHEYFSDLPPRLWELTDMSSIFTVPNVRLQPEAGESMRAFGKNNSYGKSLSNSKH
Focal adhesion kinase 1, sequence (Q05397 2-1052 limits assumed): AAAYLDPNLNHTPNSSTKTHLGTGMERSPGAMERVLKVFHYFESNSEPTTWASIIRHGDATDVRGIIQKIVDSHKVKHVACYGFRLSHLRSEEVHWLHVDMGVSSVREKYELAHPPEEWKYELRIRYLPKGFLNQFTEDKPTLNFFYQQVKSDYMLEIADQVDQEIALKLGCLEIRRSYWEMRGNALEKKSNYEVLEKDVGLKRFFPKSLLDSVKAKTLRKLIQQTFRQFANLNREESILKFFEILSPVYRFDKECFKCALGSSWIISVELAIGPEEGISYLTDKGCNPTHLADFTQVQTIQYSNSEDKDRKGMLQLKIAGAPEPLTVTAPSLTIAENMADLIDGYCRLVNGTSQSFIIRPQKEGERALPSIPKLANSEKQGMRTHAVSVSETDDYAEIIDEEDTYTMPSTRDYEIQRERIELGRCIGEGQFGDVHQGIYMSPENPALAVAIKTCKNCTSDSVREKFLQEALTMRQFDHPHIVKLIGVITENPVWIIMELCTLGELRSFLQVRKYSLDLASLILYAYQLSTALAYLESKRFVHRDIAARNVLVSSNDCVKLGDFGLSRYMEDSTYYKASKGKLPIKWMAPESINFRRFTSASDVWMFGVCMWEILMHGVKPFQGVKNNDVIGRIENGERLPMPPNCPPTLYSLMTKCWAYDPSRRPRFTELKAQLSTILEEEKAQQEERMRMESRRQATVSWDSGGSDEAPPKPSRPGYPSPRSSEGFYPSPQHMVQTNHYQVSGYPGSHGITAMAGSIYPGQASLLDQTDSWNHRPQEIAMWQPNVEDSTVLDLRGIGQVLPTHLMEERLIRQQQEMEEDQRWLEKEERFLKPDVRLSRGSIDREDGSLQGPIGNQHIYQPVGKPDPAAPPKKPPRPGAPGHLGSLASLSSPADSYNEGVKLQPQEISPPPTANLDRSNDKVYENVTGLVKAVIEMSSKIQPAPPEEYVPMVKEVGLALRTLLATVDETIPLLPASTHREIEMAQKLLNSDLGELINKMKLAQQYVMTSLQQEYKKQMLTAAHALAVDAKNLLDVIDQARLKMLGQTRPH

Compound `COc1cc(N(C)c2ccnc3ccc(C(F)(F)F)cc23)cc(OC)c1OC` has a % binding [1] of 99%.
`COCC(=O)NC/C=C/c1ccc2ncnc(Nc3ccc(Oc4ccc(C)nc4)c(C)c3)c2c1` [CP-724714] showed a % of control [2] of 100%.
Work on `Cc1cc(CN)cc(C)c1-c1ncn(C)c1-c1cncn1C` yielded a dTM [3] of -2.18 K.
Work on `CNC(=O)Nc1ccc(-c2nc(N3CC4CCC(C3)O4)c3cnn(C4CCC5(CC4)OCCO5)c3n2)cc1` yielded a % of control [4] of 66% and a % of control [5] of 25%.
Compound `O[C@H]1CC[C@H](Nc2ncc3nc(Nc4c(F)cc(F)cc4F)n([C@H]4CCOC4)c3n2)CC1` has a % of control [6] of 39%, a % of control [7] of 38% and a % of control [8] of 13%. The % of control [9] was 47%, the % of control [10] was 31% and the % of control [11] was 29%. It also gave a % of control [12] of 55%, a % of control [13] of 100% and a % of control [14] of 51%.
For `CC[C@@H]1[C@H](F)C(=O)N[C@@H]1COc1nccc2cc(C(N)=O)c(OC)cc12` [ZIMLOVISERTIB], the % of inhibition (Focal adhesion kinase 1) was -38.6% and the % of inhibition [15] was -0.0851%.
With `CN(C)CCOc1ccc(-c2nc(-c3ccncc3)c(-c3ccc4c(c3)CC/C4=N\O)[nH]2)cc1` the % of control [16] was 0%.
